Measurements from patent US10336761B2, “TGFβ receptor antagonist” (BRISTOL-MYERS SQUIBB COMPANY, priority 2015, dated 2019).

Biological target: HIS-TGFβR1 T204D (Homo sapiens (Human), UniProt P36897, T204D)
Assay: HTRF probe-displacement assay, HIS-TGFβR1 T204D
Format: binding
Details: 1 hour at room temperature

Sequence of HIS-TGFβR1 T204D (P36897 34-503 T204D): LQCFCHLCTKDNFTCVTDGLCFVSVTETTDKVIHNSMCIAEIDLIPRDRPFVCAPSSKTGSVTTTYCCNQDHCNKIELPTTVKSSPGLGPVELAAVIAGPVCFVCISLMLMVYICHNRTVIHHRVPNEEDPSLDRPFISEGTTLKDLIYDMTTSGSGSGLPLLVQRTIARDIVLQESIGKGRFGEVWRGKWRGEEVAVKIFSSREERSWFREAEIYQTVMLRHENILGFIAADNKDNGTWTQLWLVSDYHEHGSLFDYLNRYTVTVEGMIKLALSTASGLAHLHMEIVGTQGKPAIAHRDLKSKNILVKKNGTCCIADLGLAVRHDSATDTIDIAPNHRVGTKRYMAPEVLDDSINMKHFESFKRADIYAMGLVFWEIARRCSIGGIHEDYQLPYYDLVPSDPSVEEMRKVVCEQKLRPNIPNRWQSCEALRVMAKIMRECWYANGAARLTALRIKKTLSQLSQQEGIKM

| Compound | IC50 [nM] |
| --- | --- |
| CN(C)C1CCC(NCc2ccn3nc(-c4ccccn4)nc(Nc4ccncc4F)c23)CC1 (centres unmarked) [Example 245, 4-N-({4-[(3-fluoropyridin-4-yl)amino]-2-(pyridin-2-yl)pyrrolo[2,1-f][1,2,4]triazin-5-yl}methyl)-1-N, 1-N-dimethylcyclohexane-1,4-diamine] | 1 |
| Fc1cnccc1Nc1nc(-c2ccccn2)nn2ccc(CNC3CCNCC3)c12 [Example 307, 3-fluoro-N-(5-{[(piperidin-4-yl)amino]methyl}-2-(pyridin-2-yl)pyrrolo[2,1-f][1,2,4]triazin-4-yl)pyridin-4-amine] | 9.1 |
| O=C(NCCCN1CCS(=O)(=O)CC1)c1cnccc1Nc1nc(-c2cccc(C(F)F)n2)nn2cccc12 [Example 168, 4-({2-[6-(difluoromethyl)pyridin-2-yl]pyrrolo[2,1-f][1,2,4]triazin-4-yl}amino)-N-[3-(1,1-dioxo-1,4-thiomorpholin-4-yl)propyl]pyridine-3-carboxamide] | 8.6 |
| Fc1cnccc1Nc1nc(-c2ccccn2)nn2ccc(CNC34CC5CC(CC(C5)C3)C4)c12 [Example 282, N-(5-{[(adamantan-1-yl)amino]methyl}-2-(pyridin-2-yl)pyrrolo[2,1-f][1,2,4]triazin-4-yl)-3-fluoropyridin-4-amine] | 15 |
| COc1cccc(-c2nc(Nc3ccncc3F)c3c(CCN4CCC(N)CC4)ccn3n2)n1 [Example 114, N-{5-[2-(4-aminopiperidin-1-yl)ethyl]-2-(6-methoxypyridin-2-yl)pyrrolo[2,1-f][1,2,4]triazin-4-yl}-3-fluoropyridin-4-amine] | 260 |
| Cc1cccc(-c2nc(Nc3ccncc3F)c3c(CN4CCC(F)(F)CC4)ccn3n2)n1 [Example 76, N-{5-[(4,4-difluoropiperidin-1-yl)methyl]-2-(6-methylpyridin-2-yl)pyrrolo[2,1-f][1,2,4]triazin-4-yl}-3-fluoropyridin-4-amine] | 0.25 |
| COc1cccc(-c2nc(Nc3ccnc(F)c3)c3cccn3n2)n1 [Example 94, 2-fluoro-N-[2-(6-methoxypyridin-2-yl)pyrrolo[2,1-f][1,2,4]triazin-4-yl]pyridin-4-amine] | 630 |
| CC(=O)Nc1cc(Nc2nc(-c3cccc(F)n3)nn3cccc23)c(F)cn1 [Example 339, N-(5-fluoro-4-{[2-(6-fluoropyridin-2-yl)pyrrolo[2,1-f][1,2,4]triazin-4-yl]amino}pyridin-2-yl)acetamide] | 3.3 |
| CN(C)CCNCc1ccn2nc(-c3ccccn3)nc(Nc3ccncc3F)c12 [Example 280, N-[5-({[2-(dimethylamino)ethyl]amino}methyl)-2-(pyridin-2-yl)pyrrolo[2,1-f][1,2,4]triazin-4-yl]-3-fluoropyridin-4-amine] | 1.4 |
| Cc1cc(Nc2nc(-c3cccc(C(F)(F)F)n3)nn3cccc23)ccn1 [Example 257, 2-methyl-N-{2-[6-(trifluoromethyl)pyridin-2-yl]pyrrolo[2,1-f][1,2,4]triazin-4-yl}pyridin-4-amine] | 660 |
| Cc1nc2ccc(NCc3ccn4nc(-c5ccccn5)nc(Nc5ccncc5F)c34)cc2s1 [Example 295, N-({4-[(3-fluoropyridin-4-yl)amino]-2-(pyridin-2-yl)pyrrolo[2,1-f][1,2,4]triazin-5-yl}methyl)-2-methyl-1,3-benzothiazol-6-amine] | 30 |
| O=C(NCCN1CCCC1)c1cnccc1Nc1nc(-c2ccccn2)nn2cccc12 [Example 142] | 19 |
| CN1CCN(CC(=O)Nc2cc(Nc3nc(-c4cccc(C(F)(F)F)n4)nn4cccc34)ccn2)CC1 [Example 316, 2-(4-methylpiperazin-1-yl)-N-[4-({2-[6-(trifluoromethyl)pyridin-2-yl]pyrrolo[2,1-f][1,2,4]triazin-4-yl}amino)pyridin-2-yl]acetamide] | 1 |
| CS(=O)(=O)Nc1cccc(-c2nc(Nc3ccncc3Cl)c3cccn3n2)n1 [Example 90, N-(6-{4-[(3-chloropyridin-4-yl)amino]pyrrolo[2,1-f][1,2,4]triazin-2-yl}pyridin-2-yl)methanesulfonamide] | 8.8 |
| COc1cccc(-c2nc(Nc3ccncc3F)c3c(C(O)CO)ccn3n2)n1 (centres unmarked) [Example 28, 1-{4-[(3-fluoropyridin-4-yl)amino]-2-(6-methoxypyridin-2-yl)pyrrolo[2,1-f][1,2,4]triazin-5-yl}ethane-1,2-diol] | 16 |
| Cc1cccc(-c2nc(Nc3ccncc3)c3cc(C(N)=O)cn3n2)n1 [Example 219, 2-(6-methylpyridin-2-yl)-4-[(pyridin-4-yl)amino]pyrrolo[2,1-f][1,2,4]triazine-6-carboxamide] | 10 |
| FC(F)(F)c1cccc(-c2nc(Nc3ccnc(Cl)c3)c3cccn3n2)n1 [Example 82, 2-chloro-N-{2-[6-(trifluoromethyl)pyridin-2-yl]pyrrolo[2,1-f][1,2,4]triazin-4-yl}pyridin-4-amine] | 2700 |
| COc1cccc(-c2nc(Nc3ccncc3C(F)F)c3cccn3n2)n1 [Example 15, 3-(difluoromethyl)-N-[2-(6-methoxypyridin-2-yl)pyrrolo[2,1-f][1,2,4]triazin-4-yl]pyridin-4-amine] | 10 |

| Compound | IC50 [nM] |
| --- | --- |
| CC(=O)Nc1cc(Nc2nc(-c3ccc(F)cn3)nn3cccc23)ccn1 [Example 227, N-(4-{[2-(5-fluoropyridin-2-yl)pyrrolo[2,1-f][1,2,4]triazin-4-yl]amino}pyridin-2-yl)acetamide] | 3.6 |
| O=C(CN1CC[C@H](O)C1)Nc1cc(Nc2nc(-c3cccc(C(F)(F)F)n3)nn3cccc23)ccn1 [Example 325, 2-[(3S)-3-hydroxypyrrolidin-1-yl]-N-[4-({2-[6-(trifluoromethyl)pyridin-2-yl]pyrrolo[2,1-f][1,2,4]triazin-4-yl}amino)pyridin-2-yl]acetamide] | 10 |
| COc1nc(-c2nc(Nc3ccncc3F)c3cccn3n2)cs1 [Example 249, 3-fluoro-N-[2-(2-methoxy-1,3-thiazol-4-yl)pyrrolo[2,1-f][1,2,4]triazin-4-yl]pyridin-4-amine] | 5.8 |
| Cc1cncc(-c2nc(Nc3ccncc3Cl)c3cccn3n2)n1 [Example 6, 3-chloro-N-[2-(6-methylpyrazin-2-yl)pyrrolo[2,1-f][1,2,4]triazin-4-yl]pyridin-4-amine] | 68 |
| CC(=O)Nc1cc(Nc2nc(-c3ccc(F)c(C(F)F)n3)nn3cccc23)ccn1 [Example 11, N-[4-({2-[6-(difluoromethyl)-5-fluoropyridin-2-yl]pyrrolo[2,1-f][1,2,4]triazin-4-yl}amino)pyridin-2-yl]acetamide] | 6.1 |
| Fc1cccc(-c2nc(Nc3ccncc3Cl)c3cccn3n2)n1 [Example 70, 3-chloro-N-[2-(6-fluoropyridin-2-yl)pyrrolo[2,1-f][1,2,4]triazin-4-yl]pyridin-4-amine] | 0.39 |
| O=C(NC1CCOCC1)c1cnccc1Nc1nc(-c2cccc(C(F)F)n2)nn2cccc12 [Example 178, 4-({2-[6-(difluoromethyl)pyridin-2-yl]pyrrolo[2,1-f][1,2,4]triazin-4-yl}amino)-N-(oxan-4-yl)pyridine-3-carboxamide] | 220 |
| CN1CCC(OCc2ccn3nc(-c4ccccn4)nc(Nc4ccncc4F)c23)CC1 [Example 328, 3-fluoro-N-(5-{[(1-methylpiperidin-4-yl)oxy]methyl}-2-(pyridin-2-yl)pyrrolo[2,1-f][1,2,4]triazin-4-yl)pyridin-4-amine] | 13 |
| CC(C)n1cc(NCc2ccn3nc(-c4ccccn4)nc(Nc4ccncc4F)c23)cn1 [Example 302, 3-fluoro-N-[5-({[1-(propan-2-yl)-1H-pyrazol-4-yl]amino}methyl)-2-(pyridin-2-yl)pyrrolo[2,1-f][1,2,4]triazin-4-yl]pyridin-4-amine] | 1.7 |
| Cc1cccc(-c2nc(Nc3ccncc3C(=O)NCCCN3CCCC3)c3cccn3n2)n1 [Example 221, 4-{[2-(6-methylpyridin-2-yl)pyrrolo[2,1-f][1,2,4]triazin-4-yl]amino}-N-[3-(pyrrolidin-1-yl)propyl]pyridine-3-carboxamide] | 4 |
| CC(C)(NCc1ccn2nc(-c3ccccn3)nc(Nc3ccncc3F)c12)c1ccccn1 [Example 301, 3-fluoro-N-[2-(pyridin-2-yl)-5-({[2-(pyridin-2-yl)propan-2-yl]amino}methyl)pyrrolo[2,1-f][1,2,4]triazin-4-yl]pyridin-4-amine] | 0.58 |
| O[C@H]1CCN(Cc2ccn3nc(-c4ccccn4)nc(Nc4ccncc4F)c23)C1 [Example 232, (3S)-1-({4-[(3-fluoropyridin-4-yl)amino]-2-(pyridin-2-yl)pyrrolo[2,1-f][1,2,4]triazin-5-yl}methyl)pyrrolidin-3-ol] | 0.93 |
| OCC1(CNCc2ccn3nc(-c4ccccn4)nc(Nc4ccncc4F)c23)COC1 [Example 296, (3-{[({4-[(3-fluoropyridin-4-yl)amino]-2-(pyridin-2-yl)pyrrolo[2,1-f][1,2,4]triazin-5-yl}methyl)amino]methyl}oxetan-3-yl)methanol] | < 0.25 |
| COc1cccc(-c2nc(Nc3ccncc3F)c3cc(CNCC(C)(C)O)cn3n2)n1 [Example 207, 1-[({4-[(3-fluoropyridin-4-yl)amino]-2-(6-methoxypyridin-2-yl)pyrrolo[2,1-f][1,2,4]triazin-6-yl}methyl)amino]-2-methylpropan-2-ol] | 1700 |
| O=C(CN1CCOCC1)Nc1cc(Nc2nc(-c3cccc(C(F)(F)F)n3)nn3cccc23)ccn1 [Example 331, 2-(morpholin-4-yl)-N-[4-({2-[6-(trifluoromethyl)pyridin-2-yl]pyrrolo[2,1-f][1,2,4]triazin-4-yl}amino)pyridin-2-yl]acetamide] | 2.6 |
| Fc1cnccc1Nc1nc(-c2ccccn2)nn2ccc(CNCC3CNCCO3)c12 (centres unmarked) [Example 299, 3-fluoro-N-(5-{[(morpholin-2-ylmethyl)amino]methyl}-2-(pyridin-2-yl)pyrrolo[2,1-f][1,2,4]triazin-4-yl)pyridin-4-amine] | 23 |
| Fc1cnccc1Nc1nc(-c2cccc(C(F)F)n2)nn2ccc(CN3CCC(F)(F)CC3)c12 [Example 23, N-{2-[6-(difluoromethyl)pyridin-2-yl]-5-[(4,4-difluoropiperidin-1-yl)methyl]pyrrolo[2,1-f][1,2,4]triazin-4-yl}-3-fluoropyridin-4-amine] | 1.1 |
